The record followed here is paper PMC3358308 (2012).

The structures appear in SMILES notation.

The test system of test [1] is M3Q (DNA, G4) GAGGGAGGGAGGGAGAGGGA
The test can be described thus: UV-Vis absorption titration, Job plot, fluorescence. To be noted: K+ 50 mM (KCl); 10 mM Tris-HCl pH 7.0, 1 mM EDTA, 25 °C; 5 µM compound; Scatchard two-site, constants not given.

The test system of test [2] is Hum24 (DNA, G4) TTAGGGTTAGGGTTAGGGTTAGGG
The test is described as above. To be noted: K+ 50 mM (KCl); 10 mM Tris-HCl pH 7.0, 1 mM EDTA, 25 °C; 5 µM compound; Scatchard two-site, constants not given.

The subject of test [3] is KRAS (DNA, G4) AGGGCGGTGTGGGAAGAGGGAAGAGGGGGAGG
The test is described as above. Particulars: K+ 50 mM (KCl); 10 mM Tris-HCl pH 7.0, 1 mM EDTA, 25 °C; 5 µM compound; Scatchard two-site, constants not given.

Test [4] deals with Oxy28 (DNA, G4) GGGGTTTTGGGGTTTTGGGGTTTTGGGG
Described as above. To be noted: K+ 50 mM (KCl); 10 mM Tris-HCl pH 7.0, 1 mM EDTA, 25 °C; 5 µM compound; Scatchard two-site, constants not given.

In test [5] the test system is LD (DNA, duplex) GCGCAATTGCGC
The test can be described thus: UV-Vis absorption, fluorescence. To be noted: K+ 50 mM (KCl); 10 mM Tris-HCl pH 7.0, 1 mM EDTA; 5 µM compound, 10 µM strand; weak new band at 682 nm.

In the case of `C[N+]1(CCOc2ccc(-c3c4nc(c(-c5ccc(OCC[N+]6(C)CCCCC6)cc5)c5ccc([nH]5)c(-c5ccc(OCC[N+]6(C)CCCCC6)cc5)c5nc(c(-c6ccc(OCC[N+]7(C)CCCCC7)cc6)c6ccc3[nH]6)C=C5)C=C4)cc2)CCCCC1`, the binding entry in test [1] was “yes”; in test [2], “yes”; in test [3] it was “yes”; in test [4], “yes”; in test [5] it was “weak”.
